Laboratory results reported in ChEMBL document CHEMBL1909046, “DrugMatrix in vitro pharmacology data”.
pIC50, pKi: −log10 of the molar value.

Tests used:
Substance-P receptor = Substance-P receptor (Homo sapiens, UniProt P25103); type: cell membranes, Membrane; settings: cho; further: in other assays of this panel Not Active means under 50% inhibition at 10 µM
[1] = target: Beta-2 adrenergic receptor (Homo sapiens, UniProt P07550); assay: DRUGMATRIX: Adrenergic beta2 radioligand binding (ligand: [3H] CGP-12177); type: cell membranes, CHO, Membrane; settings: cho; Not Active = under 50% inhibition at 10 µM
[2] = target: T1, Neuropeptide Y receptor type 1 (Homo sapiens, UniProt P25929); type: cell membranes, Membrane; settings: sk-n-mc; further: in other assays of this panel Not Active means under 50% inhibition at 10 µM
T1 sequence (P25929 whole entry): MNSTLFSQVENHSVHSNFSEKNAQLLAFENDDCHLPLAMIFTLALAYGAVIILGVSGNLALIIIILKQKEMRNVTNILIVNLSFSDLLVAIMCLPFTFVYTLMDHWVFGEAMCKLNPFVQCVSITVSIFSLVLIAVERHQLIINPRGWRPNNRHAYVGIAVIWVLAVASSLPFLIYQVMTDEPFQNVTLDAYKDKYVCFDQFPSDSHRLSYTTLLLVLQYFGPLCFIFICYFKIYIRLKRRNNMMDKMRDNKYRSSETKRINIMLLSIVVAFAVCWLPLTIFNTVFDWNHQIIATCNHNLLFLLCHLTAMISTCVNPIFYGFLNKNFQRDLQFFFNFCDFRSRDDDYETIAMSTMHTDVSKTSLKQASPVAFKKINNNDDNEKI

Adenosine receptor A1 = target: T2, Adenosine receptor A1 (Homo sapiens, UniProt P30542); type: cell membranes, CHO, Membrane; settings: cho;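 further: radioligand binding assay at the adenosine A1 receptor, with DPCPX serving as the labelled ligand; in other assays of this panel Not Active means under 50% inhibition at 10 µM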
T2 sequence (P30542 whole entry): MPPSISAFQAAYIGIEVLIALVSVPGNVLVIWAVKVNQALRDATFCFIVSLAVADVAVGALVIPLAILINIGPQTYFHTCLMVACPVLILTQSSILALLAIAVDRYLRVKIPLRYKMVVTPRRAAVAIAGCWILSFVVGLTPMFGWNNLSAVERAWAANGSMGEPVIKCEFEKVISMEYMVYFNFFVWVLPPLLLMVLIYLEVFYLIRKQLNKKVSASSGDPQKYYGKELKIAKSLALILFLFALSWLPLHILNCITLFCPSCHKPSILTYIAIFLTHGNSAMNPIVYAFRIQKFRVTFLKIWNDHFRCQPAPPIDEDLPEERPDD

[3] = target: T3, 5-hydroxytryptamine receptor 1A (Rattus norvegicus, UniProt P19327); type: cell membranes, CHO-K1, Membrane; settings: cho-k1; further: in other assays of this panel Not Active means under 50% inhibition at 10 µM
T3 sequence (P19327 whole entry): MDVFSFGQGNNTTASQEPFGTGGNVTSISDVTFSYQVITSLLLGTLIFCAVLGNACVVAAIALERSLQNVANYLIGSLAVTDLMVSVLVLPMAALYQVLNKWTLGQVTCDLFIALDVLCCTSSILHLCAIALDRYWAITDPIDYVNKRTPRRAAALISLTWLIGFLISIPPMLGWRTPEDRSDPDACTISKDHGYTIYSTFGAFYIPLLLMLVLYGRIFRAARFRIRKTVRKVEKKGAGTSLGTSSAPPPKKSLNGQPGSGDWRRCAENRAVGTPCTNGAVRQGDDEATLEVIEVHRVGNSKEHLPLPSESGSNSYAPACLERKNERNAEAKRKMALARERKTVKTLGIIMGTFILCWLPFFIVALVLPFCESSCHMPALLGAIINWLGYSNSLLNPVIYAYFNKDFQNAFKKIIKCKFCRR

[4] = target: T4, C-X-C chemokine receptor type 2 (Homo sapiens, UniProt P25025); type: cell membranes, CHO-K1, Membrane; settings: for IC50: cho-k1
T4 sequence (P25025 whole entry): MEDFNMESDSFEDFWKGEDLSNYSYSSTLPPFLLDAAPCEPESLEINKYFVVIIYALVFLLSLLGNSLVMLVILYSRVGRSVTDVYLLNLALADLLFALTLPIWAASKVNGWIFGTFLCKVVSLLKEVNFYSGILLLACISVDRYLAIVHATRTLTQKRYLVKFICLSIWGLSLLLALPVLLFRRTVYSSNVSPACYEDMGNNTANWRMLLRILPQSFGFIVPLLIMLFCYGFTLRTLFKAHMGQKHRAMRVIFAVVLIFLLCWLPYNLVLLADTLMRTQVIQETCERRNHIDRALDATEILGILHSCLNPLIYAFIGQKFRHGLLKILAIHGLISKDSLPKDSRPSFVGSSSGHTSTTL

Substance-P receptor, sequence (P25103 whole entry): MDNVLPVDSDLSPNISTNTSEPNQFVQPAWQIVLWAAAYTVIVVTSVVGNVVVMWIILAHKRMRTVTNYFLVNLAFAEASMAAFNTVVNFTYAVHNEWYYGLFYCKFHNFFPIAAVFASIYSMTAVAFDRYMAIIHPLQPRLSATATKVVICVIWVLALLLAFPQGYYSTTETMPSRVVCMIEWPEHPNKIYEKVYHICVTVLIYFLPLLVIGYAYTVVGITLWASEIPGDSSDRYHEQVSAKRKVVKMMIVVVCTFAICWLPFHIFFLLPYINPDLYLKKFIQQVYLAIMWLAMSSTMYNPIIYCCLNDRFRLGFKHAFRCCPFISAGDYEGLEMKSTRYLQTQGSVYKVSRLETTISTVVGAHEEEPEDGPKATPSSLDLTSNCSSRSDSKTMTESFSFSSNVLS
Beta-2 adrenergic receptor, sequence (P07550 whole entry): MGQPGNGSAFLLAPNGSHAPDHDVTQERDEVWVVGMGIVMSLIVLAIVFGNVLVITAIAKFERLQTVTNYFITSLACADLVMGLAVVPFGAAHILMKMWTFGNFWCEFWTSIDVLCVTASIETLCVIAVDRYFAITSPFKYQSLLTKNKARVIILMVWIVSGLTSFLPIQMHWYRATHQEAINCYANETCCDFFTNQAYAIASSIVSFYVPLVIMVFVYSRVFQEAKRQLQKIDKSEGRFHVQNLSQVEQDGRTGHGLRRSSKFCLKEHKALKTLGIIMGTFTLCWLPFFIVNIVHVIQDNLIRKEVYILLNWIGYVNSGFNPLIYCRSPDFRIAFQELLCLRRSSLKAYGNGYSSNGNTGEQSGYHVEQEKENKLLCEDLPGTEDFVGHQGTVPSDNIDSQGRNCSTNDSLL

Structure (SMILES) | IC50 (Substance-P receptor) | IC50 [1] | IC50 [2] | IC50 (Adenosine receptor A1) | IC50 [3] | IC50 [4] | pIC50 ([4]; read-out: IC50) | pKi ([4]; read-out: Ki)
Cc1cc2c(s1)Nc1ccccc1N=C2N1CCN(C)CC1 [OLANZAPINE] | Not Active | Not Active | Not Active | Not Active | Not Active | Not Active |  | 
CC1(C)[C@H](C(=O)O)N2C(=O)C[C@H]2S1(=O)=O [SULBACTAM] | Not Active | Not Active | Not Active | Not Active | Not Active | Not Active |  | 
Oc1ccc(/C=C/c2cc(O)cc(O)c2)cc1 [RESVERATROL] | Not Active | Not Active | Not Active | Not Active | Not Active | Not Active |  | 
O=C1CC[C@@]2(O)[C@H]3Cc4ccc(O)c5c4[C@@]2(CCN3CC2CC2)[C@H]1O5 [NALTREXONE] | Not Active | Not Active | Not Active | Not Active | Not Active | Not Active |  | 
Cc1nnc(NS(=O)(=O)c2ccc(N)cc2)s1 [SULFAMETHIZOLE] | Not Active | Not Active | Not Active | Not Active | Not Active | Not Active |  | 
C=CCc1ccc2c(c1)OCO2 [SAFROLE] | Not Active | Not Active | Not Active | Not Active | Not Active | Not Active |  | 
Cc1cn([C@H]2C=C[C@@H](CO)O2)c(=O)[nH]c1=O [STAVUDINE] | Not Active | Not Active | Not Active | Not Active | Not Active | Not Active |  | 
CC1=C(/C=C/C(C)=C/C=C/C(C)=C/C(=O)O)C(C)(C)CCC1 [TRETINOIN] | Not Active | Not Active | Not Active | Not Active | Not Active | Not Active |  | 
Nc1nc(N)c2nc(-c3ccccc3)c(N)nc2n1 | Not Active | Not Active | Not Active | Not Active | Not Active | Not Active |  | 
CN1C(=O)OC(C)(C)C1=O [TRIMETHADIONE] | Not Active | Not Active | Not Active | Not Active | Not Active | Not Active |  | 
Cc1ccc(S(=O)(=O)NC(=O)NN2CCCCCC2)cc1 [TOLAZAMIDE] | Not Active | Not Active | Not Active | Not Active | Not Active | Not Active |  | 
O=C(O)c1cc(/N=N/c2ccc(S(=O)(=O)Nc3ccccn3)cc2)ccc1O [SULFASALAZINE] | Not Active | Not Active | Not Active | Not Active | Not Active | Not Active |  | 
CCN(CC)C(=S)SSC(=S)N(CC)CC | Not Active | Not Active | Not Active | Not Active | Not Active |  | 5.22 | 5.38
CS(=O)(=O)c1ccc(C2=C(c3ccccc3)C(=O)OC2)cc1 [ROFECOXIB] | Not Active | Not Active | Not Active | Not Active | Not Active | Not Active |  | 
Cc1cnc(NC(=O)C2=C(O)c3ccccc3S(=O)(=O)N2C)s1 [MELOXICAM] | Not Active | Not Active | Not Active | Not Active | Not Active | Not Active |  | 
C1CCN2C[C@@H]3C[C@@H](CN4CCCC[C@@H]34)[C@H]2C1 [SPARTEINE] | Not Active | Not Active | Not Active | Not Active | Not Active | Not Active |  | 
CO[C@@H]1[C@@H](OC)[C@H](C)[C@@](O)(CC(=O)O)O[C@H]1[C@H](C)[C@H]1O[C@@]2(CC[C@@](C)([C@H]3CC[C@@](C)([C@@H]4O[C@@H]([C@H]5O[C@](C)(O)[C@H](C)C[C@@H]5C)C[C@@H]4O[C@@H]4C[C@H](OC)[C@@H](OC)[C@H](C)O4)O3)O2)C[C@H](O)[C@H]1C.N [MADURAMICIN] | Not Active | Not Active | Not Active | Not Active | Not Active | Not Active |  | 
CC[C@@]1(O)C(=O)OCc2c1cc1n(c2=O)Cc2cc3c(CN(C)C)c(O)ccc3nc2-1 [TOPOTECAN] | Not Active | Not Active | Not Active | Not Active | Not Active | Not Active |  | 
C#C[C@]1(O)CC[C@H]2[C@@H]3[C@H](C)CC4=C(CCC(=O)C4)[C@H]3CC[C@@]21C [TIBOLONE] | Not Active | Not Active | Not Active | Not Active | Not Active | Not Active |  | 
C[N+]1(C)[C@@H]2C[C@@H](OC(=O)[C@H](CO)c3ccccc3)C[C@H]1[C@@H]1O[C@@H]12.[Br-] [METHSCOPOLAMINE BROMIDE] | Not Active | Not Active | Not Active | Not Active | Not Active | Not Active |  | 
CC[C@H](C)[C@@H](CO[C@@H](Cc1ccccc1)C(=O)N[C@@H](CCS(C)(=O)=O)C(=O)OC(C)C)NC[C@@H](N)CS | Not Active | Not Active | Not Active | Not Active | Not Active | Not Active |  | 
CCN1CCCC1CNC(=O)c1cc(S(N)(=O)=O)ccc1OC (centres undefined) [SULPIRIDE] | Not Active | Not Active | Not Active | Not Active | Not Active | Not Active |  | 
CC[C@H](C)C(=O)O[C@H]1CCC=C2C=C[C@H](C)[C@H](CC[C@@H]3C[C@@H](O)CC(=O)O3)[C@H]21 [MEVASTATIN] | Not Active | Not Active | Not Active | Not Active | Not Active | Not Active |  | 
C[C@]12CCC(=O)C[C@@H]1CC[C@@H]1[C@@H]2CC[C@]2(C)[C@@H](O)CC[C@@H]12 [STANOLONE] | Not Active | Not Active | Not Active | Not Active | Not Active | Not Active |  | 
CC(N)C12CC3CC(CC(C3)C1)C2 (centres undefined) [RIMANTADINE] | Not Active | Not Active | Not Active | Not Active | Not Active | Not Active |  | 
Cc1cccc(C)c1NC(=O)C(C)N (centres undefined) [TOCAINIDE] | Not Active | Not Active | Not Active | Not Active | Not Active | Not Active |  | 
CCN(CC)N=O [N-NITROSODIETHYLAMINE] | Not Active | Not Active | Not Active | Not Active | Not Active | Not Active |  | 
CNCCCC12CCC(c3ccccc31)c1ccccc12 [MAPROTILINE] | Not Active | Not Active | Not Active | Not Active | Not Active | Not Active |  | 
CN(C)CCC=C1c2ccccc2COc2ccccc21 [DOXEPIN] | Not Active |  | Not Active | Not Active |  | Not Active |  | 
CCC(C)(C)C(=O)O[C@H]1C[C@@H](C)C=C2C=C[C@H](C)[C@H](CC[C@@H]3C[C@@H](O)CC(=O)O3)[C@H]21 [SIMVASTATIN] | Not Active | Not Active | Not Active | Not Active | Not Active | Not Active |  | 
